Laboratory results as given in PubChem BioAssay (NCI).
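1) Cells in 96-well plates. 2) Compound, 48 h, 5 concentrations. 3) Linear interpolation between surrounding doses. 4) Unreached endpoint = highest concentration. TGI marks complete inhibition of growth.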

How the values were obtained:
Assay in all cases: inhibition of tumour cell growth, NCI panel, 48 h
786-0 renal = tested on: 786-0 renal
A498 renal = tested on: A498 renal
A549 NSCLC = tested on: A549 NSCLC
ACHN renal = tested on: ACHN renal
CAKI-1 renal = tested on: CAKI-1 renal
CCRF-CEM leukemia = tested on: CCRF-CEM leukemia
COLO 205 colon = tested on: COLO 205 colon
DU-145 prostate = tested on: DU-145 prostate
EKVX NSCLC = tested on: EKVX NSCLC
HCC-2998 colon = tested on: HCC-2998 colon
HCT-116 colon = tested on: HCT-116 colon
HCT-15 colon = tested on: HCT-15 colon
HL-60(TB) leukemia = tested on: HL-60(TB) leukemia
HOP-62 NSCLC = tested on: HOP-62 NSCLC
HOP-92 NSCLC = tested on: HOP-92 NSCLC
HS 578T breast = tested on: HS 578T breast
HT29 colon = tested on: HT29 colon
IGROV1 ovarian = tested on: IGROV1 ovarian
K-562 leukemia = tested on: K-562 leukemia
KM12 colon = tested on: KM12 colon
LOX IMVI melanoma = tested on: LOX IMVI melanoma
M14 melanoma = tested on: M14 melanoma
MALME-3M melanoma = tested on: MALME-3M melanoma
MCF7 breast = tested on: MCF7 breast
MDA-MB-231 breast = tested on: MDA-MB-231 breast
MDA-MB-435 = tested on: MDA-MB-435
MDA-N = tested on: MDA-N
MOLT-4 leukemia = tested on: MOLT-4 leukemia
NCI-H226 lung = tested on: NCI-H226 lung
NCI-H23 lung = tested on: NCI-H23 lung
NCI-H460 lung = tested on: NCI-H460 lung
NCI-H522 lung = tested on: NCI-H522 lung
NCI/ADR-RES ovarian = tested on: NCI/ADR-RES ovarian
OVCAR-3 ovarian = tested on: OVCAR-3 ovarian
OVCAR-4 ovarian = tested on: OVCAR-4 ovarian
OVCAR-5 ovarian = tested on: OVCAR-5 ovarian
OVCAR-8 ovarian = tested on: OVCAR-8 ovarian
PC-3 prostate = tested on: PC-3 prostate
RPMI-8226 leukemia = tested on: RPMI-8226 leukemia
RXF 393 renal = tested on: RXF 393 renal
SF-268 CNS = tested on: SF-268 CNS
SF-295 CNS = tested on: SF-295 CNS
SF-539 CNS = tested on: SF-539 CNS
SK-MEL-2 melanoma = tested on: SK-MEL-2 melanoma
SK-MEL-28 melanoma = tested on: SK-MEL-28 melanoma
SK-MEL-5 melanoma = tested on: SK-MEL-5 melanoma
SK-OV-3 ovarian = tested on: SK-OV-3 ovarian
SN12C renal = tested on: SN12C renal
SNB-19 CNS = tested on: SNB-19 CNS
SNB-75 CNS = tested on: SNB-75 CNS
SR leukemia = tested on: SR leukemia
SW-620 colon = tested on: SW-620 colon
T-47D breast = tested on: T-47D breast
TK-10 renal = tested on: TK-10 renal
U251 CNS = tested on: U251 CNS
UACC-257 melanoma = tested on: UACC-257 melanoma
UO-31 renal = tested on: UO-31 renal

With `Cc1cccc2c1CC1(C2)Cc2c(C)cccc2C1=O` (configuration not stated) the TGI (786-0 renal) was 70.2 µM, the TGI (A498 renal) was 88.9 µM and the TGI (A549 NSCLC) was greater than 100 µM. For the same molecule, the TGI (ACHN renal) was 84.3 µM, the TGI (CAKI-1 renal) was 48.6 µM and the TGI (CCRF-CEM leukemia) was 56.9 µM. It also gave a TGI (COLO 205 colon) of 29.7 µM, a TGI (DU-145 prostate) of 77.3 µM and a TGI (EKVX NSCLC) of 72.8 µM. It also gave a TGI (HCC-2998 colon) of 65.1 µM, a TGI (HCT-116 colon) of 35.7 µM and a TGI (HCT-15 colon) greater than 100 µM. For the same molecule, the TGI (HL-60(TB) leukemia) was 52.6 µM, the TGI (HOP-62 NSCLC) was 54.5 µM and the TGI (HOP-92 NSCLC) was 41.9 µM. The TGI (HS 578T breast) was greater than 100 µM, the TGI (HT29 colon) was 97.2 µM and the TGI (IGROV1 ovarian) was greater than 100 µM. For the same molecule, the TGI (K-562 leukemia) was 70.3 µM, the TGI (KM12 colon) was 51.5 µM and the TGI (LOX IMVI melanoma) was 38.7 µM. For the same molecule, the TGI (M14 melanoma) was 77.7 µM, the TGI (MALME-3M melanoma) was 49.7 µM and the TGI (MCF7 breast) was 94.7 µM. It also gave a TGI (MDA-MB-231 breast) of 53.7 µM, a TGI (MDA-MB-435) of 55.8 µM and a TGI (MDA-N) of 61.8 µM. For the same molecule, the TGI (MOLT-4 leukemia) was 30.2 µM, the TGI (NCI-H226 lung) was 61 µM and the TGI (NCI-H23 lung) was greater than 100 µM. It also gave a TGI (NCI-H460 lung) of 83.2 µM, a TGI (NCI-H522 lung) of 59.3 µM and a TGI (NCI/ADR-RES ovarian) greater than 100 µM. For the same molecule, the TGI (OVCAR-3 ovarian) was 51.1 µM, the TGI (OVCAR-4 ovarian) was greater than 100 µM and the TGI (OVCAR-5 ovarian) was greater than 100 µM. The TGI (OVCAR-8 ovarian) was greater than 100 µM, the TGI (PC-3 prostate) was greater than 100 µM and the TGI (RPMI-8226 leukemia) was 43 µM. It also gave a TGI (RXF 393 renal) of 38.1 µM, a TGI (SF-268 CNS) of 87.1 µM and a TGI (SF-295 CNS) of 68.8 µM. For the same molecule, the TGI (SF-539 CNS) was 57.1 µM, the TGI (SK-MEL-2 melanoma) was 38.3 µM and the TGI (SK-MEL-28 melanoma) was 56.5 µM. It also gave a TGI (SK-MEL-5 melanoma) of 33.7 µM, a TGI (SK-OV-3 ovarian) greater than 100 µM and a TGI (SN12C renal) of 74.2 µM. The TGI (SNB-19 CNS) was greater than 100 µM, the TGI (SNB-75 CNS) was 70.7 µM and the TGI (SR leukemia) was 37.4 µM. It also gave a TGI (SW-620 colon) greater than 100 µM, a TGI (T-47D breast) greater than 100 µM and a TGI (TK-10 renal) of 92.1 µM. It also gave a TGI (U251 CNS) of 65.4 µM, a TGI (UACC-257 melanoma) of 63.5 µM and a TGI (UO-31 renal) greater than 100 µM.
